Series [1] deals with sickle red blood cells. The note with it: cited from earlier work.
For a further series, the system named is experimental animals. The following applies: micromolar levels; cited from earlier work.
For series [2] the following is noted: at appropriate levels in the blood stream; cited from earlier work.
The nature of series [3]: Hemolysis of normal human red blood cells (turbidity at 610 nm). The class given is cell-based. The following applies: human, red blood cells, cells 2 hours old, 30 min incubation, approx. 4° C., within 700 sec, n=4. The procedure:
(§1) Human red blood cells were obtained by venepuncture into Na citrate or EDTA vacutainers. They were used directly or stored in serum at 4° C. for various times. Serum and leucocytes were removed by siphoning and the settled red blood cells were washed once and finally made to a 0.15% suspension with isotonic NaCl containing 5 mM KH2 PO4 (pH 6.2). These cells were kept at 2° C. for selected periods of time during a first incubation. From this point on, all experiments were performed in subdued light to protect the light-sensitive phlorizin benzylazide. The phlorizin benzylazide obtained from the synthesis described above was added at the desired concentrations, and during this variable temperature second incubation (2°-4° C. in presence of phlorizin benzylazide), the turbidity of the cell suspension was monitored at 610 nm with a continuously recording spectrophotometer to measure hemolysis. A relatively constant level of absorbance of light indicates decreased hemolysis occurring at the lower dosage and this was verified by concomitant counting of cells with a hemacytometer. Some typical data are shown in FIG. 1 showing the change in absorbance of light (note axis A) when the drug was added (at zero time).
(§2) The dose-response curve of phlorizin benzylazide acting as a hemolytic agent of normal cells is shown in FIG. 3 and the following table:
(§3) In FIG. 3, potency is expressed as the ratio, % hemolysis/t1/2, where t1/2 represents the time (seconds) required to achieve 50% of the total hemolysis produced by the particular concentration of the compound within the time of our measurements (700 sec). The cells used for these experiments were 2 hours old, and subjected to an incubation for 30 minutes before the addition of phlorizin benzylazide and continuing thereafter at approximately 4° C. (n=4). […] Thus, this blood level concentration provides anti-sickling action by reducing the concentration of hemoglobin S with an influx of water and/or salt into the cells. Further, this is accomplished with little or no red blood cell lysis and, therefore, minimum adverse side effects.

For series [4], the system named is normal human red blood cells. Described as above. The series is classed as cell-based. The note with it: for t1/2 (time required to achieve 50% of the total hemolysis): approx. 4° C., n=4. The protocol: as §1, §2, §3
A further series has as its system human red blood cells. Description: Red cell swelling / mean cell volume (Coulter Counter). The series is classed as cell-based. The procedure: as §1
In these experiments (n=2) red cells had been stored in serum for 30 hours, and experienced a first incubation for 60 min at 4° C. and a second incubation with 12.5 μM phlorizin benzylazide at 4° C. for 5 and 10 min. […] The Coulter Counter, an automated instrument which determines the number and volume of cells passing through an analysis chamber, was used to make these measurements.

Series [5] concerns sickle red blood cells. Kind of series: Inhibition of sickling induced by deoxygenation in vitro (whole blood of sickle cell disease patients, phase microscopy). The class given is cell-based, human. The note with it: 12.5 μM, 37° C. The procedure: Whole blood was obtained from several volunteer sickle cell disease patients and was stored for several days at 4° C. […] Instead, whole blood was diluted into pre-warmed (37° C.) isotonic phosphate-buffered saline (± phlorizin benzylazide, 12.5 μM) which was then deoxygenated by continuous passage of an 100% Argon stream (1 liter/min) over a rotating thin film of the suspended cells. Aliquots were periodically taken, without O2 exposure, and fixed in 1% glutaraldehyde. These samples were then examined under phase microscopy for the degree of sickling by counting fields of at least 100 cells using a single blind, experimental protocol.
The data shown in FIG. 4 illustrate that without phlorizin benzylazide present, about 35-40% of the cells from these patients assumed the typical sickle shape (only cells having a 3:1, length:width ratio were considered to be sickled); whereas, with the phlorizin benzylazide, the deoxygenation caused a maximum increase of 5% more than the 10% of cells already sickled at zero time. Actually, the effect of phlorizin benzylazide is even more dramatic. […] The 10-15% sickled cells present at zero time are probably the so-called irreversibly sickled cells (ISC).

The nature of series [6]: Absorption and elimination of tritiated compound in rats (blood tritium after intraperitoneal injection). The class given is in vivo. The note with it: for Cmax: rat approx. 450 g, read-out: peak concentration in the blood. The protocol: (§4) An animal study was then conducted to determine the absorption and elimination and characteristics of the phlorizin benzylazide and the resulting level of safety. Three adult rats of approximately 450 grams each were injected intraperitoneally at zero time in 1, 2 and 3 mg doses of tritiated phlorizin benzylazide (875,000 cpm/mg). Thereafter, serial tail blood samples were taken at varying times and analyzed for tritium. Maximal absorption of the compound from the peritoneal compartment was slow (note FIG. 5) and maximum blood level concentrations were obtained only after about 20 hours. The initial very rapid entry and elimination of a small fraction of the radioactivity was probably tritiated H2 O and other radioactive impurities. […] The absorption rate constant was estimated to be 0.07 hr^-1. […] This feature could, of course, offer advantages for therapy in a sickle cell crisis wherein long term effectiveness is desired.

Series [7] in a line: Safety observation in rats (behavior, gross examination, histology). The series is classed as in vivo. The procedure:
as §4

In another series the test system is sugar transporter. Description: Interaction with the sugar (glucose) transporter of human red blood cells. The class given is biochemical. From the text:
(§5) From the above, it is clear that a need exists for a safe, effective and clinically useful compound for the treatment of sickle cell anemia. […] After allowing the compound to associate with its specific membrane receptor, activation with light was expected to result in relatively specific, covalent, irreversible labeling of the transporter.

The subject of series [8] is normal human red blood cells. Description: Initial photoaffinity-labeling experiments: effect on red blood cells before illumination. The class given is cell-based. The following applies: isotonic buffer; time and drug dose-dependent.
Description: as §5

For another series, the system named is sickle patients. The note with it: low sodium diet; cited from earlier work.
Where [9] appears, read: 16 (head: κ M) phlorizin benzylazide.
Where [10] appears, read: 31 (head: κ M) phlorizin benzylazide.
Setting [11] is: 62 (head: κ M) phlorizin benzylazide.
[12] abbreviates: 12.5 μM, 4° C., 5 and 10 min, n=2 (FIG. 2).

Like-named read-outs stand apart in the source and are kept apart here. Positions of bridges follow the written chain, without caps; N, C: chain ends. No end group written: not given here.

For the molecule `CC[C@@]1([C@@H]2O[C@@H]([C@H]3O[C@@](O)(CO)[C@H](C)C[C@@H]3C)C[C@@H]2C)CC[C@H]([C@]2(C)CC[C@]3(C[C@H](O)[C@@H](C)[C@@H]([C@@H](C)[C@@H](OC)[C@H](C)C(=O)O)O3)O2)O1` [Monensin], the “deformability of the red blood cell” value in the series on sickle red blood cells [1] is on record as “some improvemement in the deformability of the red blood cell”. Moreover, the toxicity result in the series on experimental animals is recorded as “highly toxic”.

Regarding `O=C(CCc1ccc(O)cc1)c1c(O)cc(O)cc1O` [phloretin], the toxic effects entry in [2] is recorded as “toxic effects at all sites in the body”.

In series [3] (4 (head: κ M) phlorizin benzylazide), `[N-]=[N+]=Nc1ccc(Cc2c(O)cc(O[C@@H]3O[C@H](CO)[C@@H](O)[C@H](O)[C@H]3O)c(C(=O)CCc3ccc(O)cc3)c2O)cc1` [phlorizin benzylazide] came in with a hemolysis at 4 µM of 0%. In addition, the hemolysis at 8 µM in series [3] (8 (head: κ M) phlorizin benzylazide) stood at 0%. The hemolysis at 16 µM in [3] (setting [9]) came to 31 ± 8.6%. For the same molecule, the hemolysis at 31 µM in [3] (setting [10]) stood at 41 ± 9.6%. Further, the hemolysis at 62 µM in series [3] (setting [11]) is 66 ± 8%. Moreover, the “t1/2 (time required to achieve 50% of the total hemolysis)” value in [4] (setting [9]) worked out at 7.5 min; in series [4] (setting [10]) it was 4.33 min; in series [4] (setting [11]), 3.88 min. Further, in [4] (concentrations below 10 μM), the cell lysis result is listed as “no cell lysis was observed”. Besides, in series [4] (higher vs lower level of phlorizin benzylazide, 2°-4° C.), the “cell lysis, extent and rate (FIG. 1)” value is listed as “a greater percentage of cell lysis (an absorbance of 0.087 represents 100% lysis) but the rate at which the cells burst was much faster”. The “lysis during swelling experiment” value in the series with human red blood cells (setting [12]) is “essentially no lysis”. Further, the mean cell volume entry with human red blood cells (setting [12]) was “a time dependent increase in mean cell volume”. The cell swelling entry in the series with human red blood cells (low phlorizin benzylazide levels, approx. 4° C.) is given as “cell swelling occurred”. In addition, the “cell shape on deoxygenation” value with sickle red blood cells [5] (100% Argon) is on record as “a uniform spherocytosis was induced in most cells”. In addition, the “maximum increase of sickled cells on deoxygenation, over the 10% already sickled at zero time” value with sickle red blood cells [5] (100% Argon, without compound about 35-40% sickled (FIG. 4)) came out at 5%. Besides, the “hemolysis in the deoxygenation experiment” value with sickle red blood cells [5] (Example 2) is on record as “no significant hemolysis”. Also, the Cmax came out at 2.5 µM in [6] (intraperitoneal, 1 mg); 5.1 µM in series [6] (intraperitoneal, 2 mg); 6.3 µM in series [6] (intraperitoneal, 3 mg). For the same molecule, the elimination process entry in series [6] (rat, intraperitoneal) is “first order process”. The “mean half life (elimination)” value in series [6] (rat, intraperitoneal) was found to be 75 h. For the same molecule, the “maximal absorption from the peritoneal compartment” value in series [6] (rat, intraperitoneal (FIG. 5)) is on record as “slow”. In addition, the “time of maximum blood level concentration” value in series [6] (rat, intraperitoneal, 1, 2 and 3 mg) was “about 20 hours”. In series [6] (rat, intraperitoneal, estimated), the absorption rate constant is 0.07 h⁻¹. Moreover, in [7] (rat, 1, 2 and 3 mg intraperitoneal), the “gross examination of all tissues” value is “unremarkable”. Also, the behavioral abnormalities entry in series [7] (rat, 1, 2 and 3 mg intraperitoneal, 5 days (lowest dosage) or 7 weeks) is given as “None of the animals exhibited any unusual behavioral abnormalities”. In addition, in series [7] (rat, two older animals (7 weeks)), the “histological examination of the liver and kidney” value is reported as “no pathology”. Further, in the series on sugar transporter (subdued light), the “affinity for the sugar transporter” value is “high, but reversible”. Also, the “inhibition of the transfer mechanism” value with sugar transporter (sugar transporter) is reported as “potent inhibitor”. Also, the “effect on red blood cells before illumination” value in [8] was “the red blood cells were found to swell and, in a time and drug dose-dependent manner, burst even in an isotonic buffer”.

As for “anti-diuretic hormone: anti-diuretic hormone given to sickle patients on a low sodium diet to reduce plasma Na+-osmolality (CYFQNCPRG-NH2; disulfide 1-6; UniProt P01185 20-28, looked up)”, the “clinical success (reduction of plasma Na+ osmolality / cell hemoglobin S concentration)” value in the series on sickle patients was “very limited success”.

Values taken from US4665058A, “Compositions and method of treatment for sickle cell anemia” (The University of Kentucky Research Foundation, priority 1985, dated 1987).
